# Active and inactive are the calls of the source. The rule behind the calls is not given here.
# Test system: Human gammaherpesvirus 4
# Experiment: Antiviral activity against EBV assessed as inhibition of viral replication by cell-based assay
# Type: functional, organism-based
row,SMILES,inhibition
1,Nc1ccn([C@@]23C[C@@H]2C[C@@H](CO)O3)c(=O)n1,inactive
2,CC(C)OC(=O)[C@H](C)NP(=O)(OC[C@@H]1C[C@H]2C[C@@]2(n2ccc(=O)[nH]c2=O)O1)Oc1ccccc1 (stereo partly drawn),inactive
3,CC(C)OC(=O)[C@H](C)NP(=O)(OC[C@@H]1C[C@H]2C[C@@]2(n2ccc(N)nc2=O)O1)Oc1ccccc1 (stereo partly drawn),inactive
4,O=c1ccn([C@@]23C[C@@H]2C[C@@H](CO)O3)c(=O)[nH]1,inactive

# Test system: Cytomegalovirus
# Experiment: Antiviral activity against CMV assessed as inhibition of viral replication by cell-based assay
# Type: functional, organism-based
row,SMILES,inhibition
1,Nc1ccn([C@@]23C[C@@H]2C[C@@H](CO)O3)c(=O)n1,inactive
2,CC(C)OC(=O)[C@H](C)NP(=O)(OC[C@@H]1C[C@H]2C[C@@]2(n2ccc(=O)[nH]c2=O)O1)Oc1ccccc1 (stereo partly drawn),inactive
3,CC(C)OC(=O)[C@H](C)NP(=O)(OC[C@@H]1C[C@H]2C[C@@]2(n2ccc(N)nc2=O)O1)Oc1ccccc1 (stereo partly drawn),inactive
4,O=c1ccn([C@@]23C[C@@H]2C[C@@H](CO)O3)c(=O)[nH]1,inactive

# Test system: HCT cell line
# Experiment: Antiproliferative activity against human HCT cells up to 100 uM by Celltiter-Glo assay
# Type: functional, cell-based
row,SMILES,Activity
1,Nc1ccn([C@@]23C[C@@H]2C[C@@H](CO)O3)c(=O)n1,inactive
2,CC(C)OC(=O)[C@H](C)NP(=O)(OC[C@@H]1C[C@H]2C[C@@]2(n2ccc(=O)[nH]c2=O)O1)Oc1ccccc1 (stereo partly drawn),inactive
3,CC(C)OC(=O)[C@H](C)NP(=O)(OC[C@@H]1C[C@H]2C[C@@]2(n2ccc(N)nc2=O)O1)Oc1ccccc1 (stereo partly drawn),inactive
4,O=c1ccn([C@@]23C[C@@H]2C[C@@H](CO)O3)c(=O)[nH]1,inactive

# Test system: A-375
# Experiment: Antiproliferative activity against human A375 cells up to 100 uM by Celltiter-Glo assay
# Type: functional, cell-based
row,SMILES,Activity
1,Nc1ccn([C@@]23C[C@@H]2C[C@@H](CO)O3)c(=O)n1,inactive
2,CC(C)OC(=O)[C@H](C)NP(=O)(OC[C@@H]1C[C@H]2C[C@@]2(n2ccc(=O)[nH]c2=O)O1)Oc1ccccc1 (stereo partly drawn),inactive
3,CC(C)OC(=O)[C@H](C)NP(=O)(OC[C@@H]1C[C@H]2C[C@@]2(n2ccc(N)nc2=O)O1)Oc1ccccc1 (stereo partly drawn),inactive
4,O=c1ccn([C@@]23C[C@@H]2C[C@@H](CO)O3)c(=O)[nH]1,inactive

# Test system: Human alphaherpesvirus 3
# Experiment: Antiviral activity against VZV assessed as inhibition of viral replication by cell-based assay
# Type: functional, organism-based
row,SMILES,inhibition
1,Nc1ccn([C@@]23C[C@@H]2C[C@@H](CO)O3)c(=O)n1,inactive
2,CC(C)OC(=O)[C@H](C)NP(=O)(OC[C@@H]1C[C@H]2C[C@@]2(n2ccc(=O)[nH]c2=O)O1)Oc1ccccc1 (stereo partly drawn),inactive
3,CC(C)OC(=O)[C@H](C)NP(=O)(OC[C@@H]1C[C@H]2C[C@@]2(n2ccc(N)nc2=O)O1)Oc1ccccc1 (stereo partly drawn),inactive
4,O=c1ccn([C@@]23C[C@@H]2C[C@@H](CO)O3)c(=O)[nH]1,inactive

# Test system: Human alphaherpesvirus 1
# Experiment: Antiviral activity against HSV1 assessed as inhibition of viral replication by cell-based assay
# Type: functional, organism-based
row,SMILES,inhibition
1,Nc1ccn([C@@]23C[C@@H]2C[C@@H](CO)O3)c(=O)n1,inactive
2,CC(C)OC(=O)[C@H](C)NP(=O)(OC[C@@H]1C[C@H]2C[C@@]2(n2ccc(=O)[nH]c2=O)O1)Oc1ccccc1 (stereo partly drawn),inactive
3,CC(C)OC(=O)[C@H](C)NP(=O)(OC[C@@H]1C[C@H]2C[C@@]2(n2ccc(N)nc2=O)O1)Oc1ccccc1 (stereo partly drawn),inactive
4,O=c1ccn([C@@]23C[C@@H]2C[C@@H](CO)O3)c(=O)[nH]1,inactive

# Test system: SW480
# Experiment: Antiproliferative activity against human SW480 cells up to 100 uM by Celltiter-Glo assay
# Type: functional, cell-based
row,SMILES,Activity
1,Nc1ccn([C@@]23C[C@@H]2C[C@@H](CO)O3)c(=O)n1,inactive
2,CC(C)OC(=O)[C@H](C)NP(=O)(OC[C@@H]1C[C@H]2C[C@@]2(n2ccc(=O)[nH]c2=O)O1)Oc1ccccc1 (stereo partly drawn),inactive
3,CC(C)OC(=O)[C@H](C)NP(=O)(OC[C@@H]1C[C@H]2C[C@@]2(n2ccc(N)nc2=O)O1)Oc1ccccc1 (stereo partly drawn),inactive
4,O=c1ccn([C@@]23C[C@@H]2C[C@@H](CO)O3)c(=O)[nH]1,inactive

# Source: ChEMBL document CHEMBL4330123, “Synthesis of 1',2'-methano-2',3'-dideoxynucleosides as potential antivirals” (Bioorg Med Chem Lett, 2019)
